The results in this text go back to ChEMBL document CHEMBL3991601, “The target landscape of clinical kinase drugs” (Science, 2017).

The target of assay [1] is Tyrosine-protein kinase CSK (Homo sapiens, UniProt P41240).
Assay [2] has as its target Calcium/calmodulin-dependent protein kinase type II subunit delta (Homo sapiens, UniProt Q13557).
The target in assay [3] is T1, Breakpoint cluster region protein (Homo sapiens, UniProt P11274).
T1 sequence (P11274 whole entry): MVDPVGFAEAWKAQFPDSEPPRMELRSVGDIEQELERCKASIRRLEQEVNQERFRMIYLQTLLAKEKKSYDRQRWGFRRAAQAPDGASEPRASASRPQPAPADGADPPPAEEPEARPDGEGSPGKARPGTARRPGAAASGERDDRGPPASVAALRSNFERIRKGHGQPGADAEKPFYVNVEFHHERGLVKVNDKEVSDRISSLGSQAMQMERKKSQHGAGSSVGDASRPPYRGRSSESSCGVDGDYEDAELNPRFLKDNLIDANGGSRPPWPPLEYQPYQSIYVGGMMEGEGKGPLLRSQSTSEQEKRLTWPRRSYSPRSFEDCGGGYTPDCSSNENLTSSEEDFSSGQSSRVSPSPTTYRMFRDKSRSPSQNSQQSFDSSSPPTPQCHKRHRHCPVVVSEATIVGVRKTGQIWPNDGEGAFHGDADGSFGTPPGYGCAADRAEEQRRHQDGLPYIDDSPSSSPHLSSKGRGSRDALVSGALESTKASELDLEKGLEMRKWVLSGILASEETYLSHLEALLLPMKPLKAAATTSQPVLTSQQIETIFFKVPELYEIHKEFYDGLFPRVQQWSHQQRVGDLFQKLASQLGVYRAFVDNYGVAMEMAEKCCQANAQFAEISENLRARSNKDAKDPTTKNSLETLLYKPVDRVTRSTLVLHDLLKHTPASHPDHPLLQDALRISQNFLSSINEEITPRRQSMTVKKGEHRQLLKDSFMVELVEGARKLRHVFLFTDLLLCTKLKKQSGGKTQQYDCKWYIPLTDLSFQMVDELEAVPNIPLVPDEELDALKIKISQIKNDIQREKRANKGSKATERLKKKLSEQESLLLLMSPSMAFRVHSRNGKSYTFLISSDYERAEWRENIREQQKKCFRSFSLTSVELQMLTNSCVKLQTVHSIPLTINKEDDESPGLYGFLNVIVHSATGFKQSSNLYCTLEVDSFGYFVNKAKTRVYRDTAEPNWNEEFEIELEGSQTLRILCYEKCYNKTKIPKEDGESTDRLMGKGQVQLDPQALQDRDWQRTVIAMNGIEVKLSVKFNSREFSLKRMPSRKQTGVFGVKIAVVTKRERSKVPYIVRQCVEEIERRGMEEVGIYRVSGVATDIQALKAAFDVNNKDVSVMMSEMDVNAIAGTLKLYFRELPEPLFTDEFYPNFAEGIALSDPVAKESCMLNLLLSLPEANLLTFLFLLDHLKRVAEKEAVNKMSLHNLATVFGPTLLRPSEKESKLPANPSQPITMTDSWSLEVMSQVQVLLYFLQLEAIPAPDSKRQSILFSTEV

Assay [4] has as its target T2, ATP-dependent 6-phosphofructokinase, platelet type (Homo sapiens, UniProt Q01813).
T2 sequence (Q01813 whole entry): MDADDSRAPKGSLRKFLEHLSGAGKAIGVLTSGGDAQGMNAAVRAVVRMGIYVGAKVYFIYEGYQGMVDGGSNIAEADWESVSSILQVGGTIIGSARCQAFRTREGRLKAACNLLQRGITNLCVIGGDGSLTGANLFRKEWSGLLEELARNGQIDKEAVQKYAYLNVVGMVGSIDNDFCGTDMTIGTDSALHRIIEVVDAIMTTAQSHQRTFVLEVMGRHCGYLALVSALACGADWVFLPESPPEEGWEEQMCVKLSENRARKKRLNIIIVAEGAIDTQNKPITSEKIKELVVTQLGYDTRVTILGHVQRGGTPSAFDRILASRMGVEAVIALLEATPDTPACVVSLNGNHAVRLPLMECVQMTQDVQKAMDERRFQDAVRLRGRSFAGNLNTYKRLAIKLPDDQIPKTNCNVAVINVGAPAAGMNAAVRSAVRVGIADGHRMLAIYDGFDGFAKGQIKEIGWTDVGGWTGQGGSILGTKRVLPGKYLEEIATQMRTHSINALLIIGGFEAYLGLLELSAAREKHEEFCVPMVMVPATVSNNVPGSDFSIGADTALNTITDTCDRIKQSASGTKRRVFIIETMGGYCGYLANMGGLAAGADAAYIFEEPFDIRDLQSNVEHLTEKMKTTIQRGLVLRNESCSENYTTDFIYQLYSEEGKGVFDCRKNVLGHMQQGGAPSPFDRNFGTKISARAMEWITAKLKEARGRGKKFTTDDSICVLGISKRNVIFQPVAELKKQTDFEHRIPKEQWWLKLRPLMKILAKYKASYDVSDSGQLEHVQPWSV

For a further assay, the target named is Ephrin type-A receptor 5 (Homo sapiens, UniProt P54756).
Ephrin type-A receptor 5, sequence (P54756 whole entry): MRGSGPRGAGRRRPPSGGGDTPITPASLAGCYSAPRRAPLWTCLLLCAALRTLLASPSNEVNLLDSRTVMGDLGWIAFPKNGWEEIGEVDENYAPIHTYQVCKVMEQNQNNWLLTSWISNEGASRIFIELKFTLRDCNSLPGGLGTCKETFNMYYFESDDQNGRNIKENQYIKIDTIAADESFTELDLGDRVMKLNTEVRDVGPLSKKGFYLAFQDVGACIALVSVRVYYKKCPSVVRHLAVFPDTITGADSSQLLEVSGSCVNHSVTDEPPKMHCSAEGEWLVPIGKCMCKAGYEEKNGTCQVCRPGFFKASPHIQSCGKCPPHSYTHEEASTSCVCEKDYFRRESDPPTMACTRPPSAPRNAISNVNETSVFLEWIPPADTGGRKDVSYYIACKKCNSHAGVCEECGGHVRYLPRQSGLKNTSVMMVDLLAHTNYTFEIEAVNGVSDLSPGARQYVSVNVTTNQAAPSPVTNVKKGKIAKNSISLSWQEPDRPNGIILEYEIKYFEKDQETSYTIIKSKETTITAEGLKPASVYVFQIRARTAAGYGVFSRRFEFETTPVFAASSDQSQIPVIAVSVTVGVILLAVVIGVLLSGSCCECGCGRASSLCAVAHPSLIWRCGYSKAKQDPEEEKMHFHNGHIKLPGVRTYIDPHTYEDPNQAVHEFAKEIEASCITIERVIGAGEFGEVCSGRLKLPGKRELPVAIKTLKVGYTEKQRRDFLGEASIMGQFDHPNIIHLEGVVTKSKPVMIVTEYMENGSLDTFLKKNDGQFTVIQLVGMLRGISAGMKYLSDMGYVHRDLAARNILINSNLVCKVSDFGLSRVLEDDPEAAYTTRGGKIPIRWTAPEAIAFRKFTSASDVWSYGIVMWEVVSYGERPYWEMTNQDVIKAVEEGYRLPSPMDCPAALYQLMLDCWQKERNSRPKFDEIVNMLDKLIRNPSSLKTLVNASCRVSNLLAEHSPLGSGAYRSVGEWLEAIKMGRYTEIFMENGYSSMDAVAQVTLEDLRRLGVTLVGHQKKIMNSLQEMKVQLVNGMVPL
Assay [5] concerns the target T3, Peroxisomal acyl-coenzyme A oxidase 3 (Homo sapiens, UniProt O15254).
T3 sequence (O15254 whole entry): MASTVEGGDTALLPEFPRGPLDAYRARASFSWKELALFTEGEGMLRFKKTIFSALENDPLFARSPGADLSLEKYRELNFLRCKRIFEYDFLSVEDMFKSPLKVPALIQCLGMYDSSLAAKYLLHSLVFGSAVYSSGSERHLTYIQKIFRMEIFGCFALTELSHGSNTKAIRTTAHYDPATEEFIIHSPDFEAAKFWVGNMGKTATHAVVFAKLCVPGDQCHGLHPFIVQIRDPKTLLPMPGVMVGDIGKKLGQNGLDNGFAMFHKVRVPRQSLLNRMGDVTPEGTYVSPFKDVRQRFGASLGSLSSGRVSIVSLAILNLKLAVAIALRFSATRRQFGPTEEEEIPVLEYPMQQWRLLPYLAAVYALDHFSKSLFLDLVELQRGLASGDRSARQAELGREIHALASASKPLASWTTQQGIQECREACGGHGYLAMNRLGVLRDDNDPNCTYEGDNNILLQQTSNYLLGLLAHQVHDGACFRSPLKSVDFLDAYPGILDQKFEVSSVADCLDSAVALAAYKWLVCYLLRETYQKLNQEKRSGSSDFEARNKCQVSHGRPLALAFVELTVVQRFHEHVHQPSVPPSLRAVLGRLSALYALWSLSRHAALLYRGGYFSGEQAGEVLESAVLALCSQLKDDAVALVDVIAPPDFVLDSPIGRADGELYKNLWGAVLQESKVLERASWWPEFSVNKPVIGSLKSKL

Assay [6] has as its target Dual specificity protein kinase CLK1 (Homo sapiens, UniProt P49759).

For orientation: Kd means a measure of binding affinity in units of concentration.

Activity calls are given as the source filed them. Rule as the data show it, for most assays here: actives have a measured Kd and inactives only a lower limit.
Also: in the data inactive means no Kd found up to 30 µM.

Calcium/calmodulin-dependent protein kinase type II subunit delta, sequence (Q13557 whole entry): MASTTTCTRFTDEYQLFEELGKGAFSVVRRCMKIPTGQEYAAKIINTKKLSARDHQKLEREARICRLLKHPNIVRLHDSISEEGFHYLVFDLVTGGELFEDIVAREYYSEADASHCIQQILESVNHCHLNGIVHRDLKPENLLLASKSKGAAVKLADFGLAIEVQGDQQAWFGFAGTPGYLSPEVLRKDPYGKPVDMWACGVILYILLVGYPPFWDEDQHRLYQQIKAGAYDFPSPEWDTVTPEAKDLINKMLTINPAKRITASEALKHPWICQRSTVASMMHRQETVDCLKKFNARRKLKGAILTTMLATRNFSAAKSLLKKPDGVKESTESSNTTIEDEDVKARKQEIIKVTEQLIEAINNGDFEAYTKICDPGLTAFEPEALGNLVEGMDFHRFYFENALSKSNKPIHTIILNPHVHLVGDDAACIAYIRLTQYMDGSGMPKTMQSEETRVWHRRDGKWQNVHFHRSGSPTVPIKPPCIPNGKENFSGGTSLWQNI
Dual specificity protein kinase CLK1, sequence (P49759 whole entry): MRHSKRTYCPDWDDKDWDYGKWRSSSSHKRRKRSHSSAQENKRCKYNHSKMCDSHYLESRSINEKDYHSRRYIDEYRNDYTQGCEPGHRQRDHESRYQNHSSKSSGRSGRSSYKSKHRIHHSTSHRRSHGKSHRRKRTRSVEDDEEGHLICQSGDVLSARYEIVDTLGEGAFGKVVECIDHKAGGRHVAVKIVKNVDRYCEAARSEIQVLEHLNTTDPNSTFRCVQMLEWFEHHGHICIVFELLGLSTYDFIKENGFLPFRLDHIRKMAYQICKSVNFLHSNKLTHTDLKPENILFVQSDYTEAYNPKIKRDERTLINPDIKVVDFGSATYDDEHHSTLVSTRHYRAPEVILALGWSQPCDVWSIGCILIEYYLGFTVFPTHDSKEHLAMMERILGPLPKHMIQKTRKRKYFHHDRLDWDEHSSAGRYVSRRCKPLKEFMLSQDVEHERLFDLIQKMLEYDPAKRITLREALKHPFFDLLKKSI
Tyrosine-protein kinase CSK, sequence (P41240 whole entry): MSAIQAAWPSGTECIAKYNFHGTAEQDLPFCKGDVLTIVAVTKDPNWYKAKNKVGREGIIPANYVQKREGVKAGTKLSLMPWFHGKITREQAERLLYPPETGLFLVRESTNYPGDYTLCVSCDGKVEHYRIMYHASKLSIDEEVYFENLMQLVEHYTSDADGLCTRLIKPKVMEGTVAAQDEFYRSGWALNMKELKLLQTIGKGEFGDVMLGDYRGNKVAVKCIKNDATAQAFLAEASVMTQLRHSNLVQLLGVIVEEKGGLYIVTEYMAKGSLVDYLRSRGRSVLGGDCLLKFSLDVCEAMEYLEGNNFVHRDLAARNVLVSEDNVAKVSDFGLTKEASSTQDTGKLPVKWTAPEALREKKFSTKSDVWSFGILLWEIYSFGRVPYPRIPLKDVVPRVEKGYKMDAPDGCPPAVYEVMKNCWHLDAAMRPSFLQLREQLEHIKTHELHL

In the case of `CO[C@H]1C[C@@H]2CC[C@@H](C)[C@@](O)(O2)C(=O)C(=O)N2CCCC[C@H]2C(=O)O[C@H]([C@H](C)C[C@@H]2CC[C@@H](O)[C@H](OC)C2)CC(=O)[C@H](C)/C=C(\C)[C@@H](O)[C@@H](OC)C(=O)[C@H](C)C[C@H](C)/C=C/C=C/C=C/1C` [SIROLIMUS], the Kd (in assay [1]; in assay [2]; in assay [3]; in assay [4]; at Ephrin type-A receptor 5; in assay [5]) was > 30 µM (inactive) each time. Besides, in assay [6], the Kd is > 30 µM (inactive).
For the compound `CCS(=O)(=O)c1cccc(-c2cc(C(=O)NC3CCN(C)CC3)c(C)c3[nH]c4ncc(C)cc4c23)c1` [TAK-901], the Kd in assay [1] was > 30 µM (inactive); in assay [2], > 30 µM (inactive); in assay [3], 0.133 µM (active); in assay [4] it was > 30 µM (inactive); on Ephrin type-A receptor 5 it was 0.508 µM (active); in assay [5] it was > 30 µM (inactive). For the same compound, in assay [6], the Kd was > 30 µM (inactive).
As for `CO[C@H]1C[C@@H]2CC[C@@H](C)[C@@](O)(O2)C(=O)C(=O)N2CCCC[C@H]2C(=O)O[C@H]([C@H](C)C[C@@H]2CC[C@@H](OC(=O)C(C)(CO)CO)[C@H](OC)C2)CC(=O)[C@H](C)/C=C(\C)[C@@H](O)[C@@H](OC)C(=O)[C@H](C)C[C@H](C)/C=C/C=C/C=C/1C` [TEMSIROLIMUS], the Kd (in assay [1]; in assay [2]; in assay [3]; in assay [4]; at Ephrin type-A receptor 5; in assay [5]) was > 30 µM (inactive) in each case. Besides, in assay [6], the Kd is > 30 µM (inactive).
Regarding `COc1cc2c(Nc3ccc(Cl)c(Cl)c3F)ncnc2cc1OC[C@@H]1C[C@@H]2CN(C)C[C@@H]2C1` [TESEVATINIB], the Kd was > 30 µM (inactive) in assay [1]; > 30 µM (inactive) in assay [2]; 0.113 µM (active) in assay [3]; > 30 µM (inactive) in assay [4]; > 30 µM (inactive) on Ephrin type-A receptor 5; > 30 µM (inactive) in assay [5]. Further, the Kd in assay [6] is > 30 µM (inactive).
Turning to `O=C(Cc1ccc(-c2ccc(OCCN3CCOCC3)cc2)cn1)NCc1ccccc1` [TIRBANIBULIN], the Kd (in assay [1]; in assay [2]; in assay [3]; in assay [4]; on Ephrin type-A receptor 5; in assay [5]) was > 30 µM (inactive) each time. In addition, in assay [6], the Kd is > 30 µM (inactive).
`O=C1NC(=O)[C@@H](c2cn3c4c(cccc24)CCC3)[C@@H]1c1c[nH]c2ccccc12` [TIVANTINIB]: the Kd (in assay [1]; in assay [2]; in assay [3]; in assay [4]; on Ephrin type-A receptor 5; in assay [5]) was > 30 µM (inactive) throughout. Besides, the Kd in assay [6] is > 30 µM (inactive).
As to `C[C@@H](NC(=O)c1ncnc(N)c1Cl)c1ncc(C(=O)Nc2cc(C(F)(F)F)c(Cl)cn2)s1` [TOVORAFENIB], the Kd in assay [1] was > 30 µM (inactive); in assay [2], > 30 µM (inactive); in assay [3], 0.296 µM (active); in assay [4], > 30 µM (inactive); on Ephrin type-A receptor 5, > 30 µM (inactive); in assay [5], > 30 µM (inactive). In addition, the dissociation constant Kd in assay [6] is 0.942 µM (active).
As for `CC(C)c1cc(CNc2nc(Nc3cc(C4CC4)[nH]n3)cc(N3CCN(C)CC3)n2)on1` [XL-228], the Kd in assay [1] is > 30 µM (inactive); in assay [2], > 30 µM (inactive); in assay [3], 0.003 µM (active); in assay [4], > 30 µM (inactive); on Ephrin type-A receptor 5, 0.081 µM (active); in assay [5], > 30 µM (inactive). Besides, in assay [6], the Kd is > 30 µM (inactive).
As to `C[C@@H](N)c1ccc(C(=O)Nc2ccnc3[nH]ccc23)cc1` [Y-39983], the Kd (in assay [1]; in assay [2]; in assay [3]; in assay [4]; at Ephrin type-A receptor 5; in assay [5]) was > 30 µM (inactive) in each case. Moreover, the Kd in assay [6] is 0.018 µM (active).
On to `CN1C/C=C/CCOc2cccc(c2)-c2ccnc(n2)Nc2cccc(c2)C1` [ZOTIRACICLIB], for which the Kd (in assay [1]; in assay [2]; in assay [3]; in assay [4]; at Ephrin type-A receptor 5; in assay [5]) was > 30 µM (inactive) each time. For the same compound, the Kd in assay [6] is > 30 µM (inactive).
